# What was measured:
# [1] = system: HCT116 cells; assay: Flow cytometry cell cycle analysis of HCT116 cells; assay type: cell-based; conditions: HCT116, 16 hrs, FIG. 9
# Description: In order to test the inhibitory effect of candidate compounds on the transcription of endogenous Wnt/β-cat target genes in HCT116 cells, lysates were prepared from cells that were either treated with candidate small molecules or DMSO control. […] Cell cycle arrest of compound treated HCT116 cells was further confirmed by the reduced number of phosphorylated Histone3 (PH3) positive cells, when cultured in the presence of candidate compounds (FIG. 10).
# Flow Cytometry analysis was performed on HCT116 cells treated with candidate compounds for 16 hrs per standard protocols. Briefly, compound treated cells were harvested and washed in 1×PBS followed by fixation in 70% Ethanol at 4° C. for 16 hrs. Cells were then washed in 1×PBS and treated with RNAse at 37° C. for 30′. Following extensive washes in 1×PBS, cellular DNA was stained with 500 ug/ml of Propidium Iodide at room temperature for 10′. Cells were washed again in 1×PBS and analysed by flow cytometry on a FACScalibur machine (Beckson Dickinson) at the NYU flow cytometry core facility.
# [2] = system: Wnt/β-catenin STF-LUC reporter in LNCaP; assay: β-catenin/Wnt-responsive STF16-LUC reporter with S37A β-catenin in LNCaP cells; assay type: cell-based
# Description: (§1) LNCaP or LNCaP-abl (ABL) cells were cotransfected with 0.1 μg β-galactosidase and 0.2 μg S37A stabilized β-catenin together with the indicated luciferase reporter constructs; STF16-LUC (β-catenin reporter) and LB1-LUC (AR reporter). […] Luciferase activity was normalized to β-galactosidase expression.
# (§2) To determine the IC50 for the β-catenin/Wnt-responsive reporter, cells were cotransfected with β-galactosidase (LacZ) and a constitutively active S37A stabilized β-catenin mutant construct together with the reporter construct, STF16-LUC. To determine the IC50 for the AR-responsive construct, cells were cotransfected with LacZ and the AR responsive reporter construct, ARE-LUC. […] B) AR overexpression circumvents C3 repression of AR-responsive transcription. LNCaP cells were cotransfected with 0.1 μg LacZ and 0.2 μg of the AR responsive reporter construct, ARE-LUC, together with 0, 0.05, 0.1 and 0.2 μg of an AR expression vector. […] Luciferase activity was normalized to LacZ expression.
# (§3) 108(15): 5954-63], it had not been determined in prostate cancer cells. […] 69(8): 3332-8].
# [3] = system: Wnt/β-catenin STF-LUC reporter in LNCaP-abl cells; assay: β-catenin/Wnt-responsive STF16-LUC reporter with S37A β-catenin in LNCaP-abl cells; assay type: cell-based
# Description: as §1, §2, §3
# [4] = system: ARE-LUC androgen responsive reporter gene in LNCaP; assay: AR responsive luciferase reporter (ARE-LUC / LB1-LUC) in LNCaP cells; assay type: cell-based
# Description: as §1, §2, §3
# [5] = system: LNCaP cells; assay: Proliferation assay (neutral red uptake), LNCaP; assay type: cell-based; conditions: 20 μM daily
# Description: (§4) A) Cells were cultured in phenol-red free RPMI with either 5% charcoal-stripped FBS supplemented with 0.1 nM R1881 (LNCaP) or 10% charcoal-stripped FBS alone (LNCaP-abl). […] Neutral red uptake assay was performed at the end of treatment to estimate the number of viable cells. […] Fixed cells were stained with Propidium Iodide and analyzed for DNA content using flow cytometry. The first and the second red peak and the dashed area represent G0/G1, M and S-phase cell population, respectively.
# [6] = system: LNCaP-abl cells; assay: Proliferation assay (neutral red uptake), LNCaP-abl; assay type: cell-based; conditions: 20 μM daily
# Description: as §4
# [7] = system: LNCaP cells; assay: Flow cytometry DNA content (propidium iodide), LNCaP; assay type: cell-based; conditions: 20 μM, 24 hr
# Description: as §4
# [8] = system: LNCaP-abl cells; assay: Flow cytometry DNA content (propidium iodide), LNCaP-abl; assay type: cell-based; conditions: 20 μM, 24 hr
# Description: as §4
# [9] = system: LNCaP cells; assay: PARP cleavage immunoblot as marker of apoptosis, LNCaP; assay type: cell-based; conditions: 20 μM, 72 hr
# [10] = system: HEK 293 cells; assay: Neutral red uptake growth assay, HEK293; assay type: cell-based; conditions: HEK 293, higher levels of C3 (10 or 20 μM daily)
# Description: Left panel; HEK293 cells were cultured in DMEM with 10% FBS. […] Neutral red uptake assay was performed at the end of treatment to estimate the number of viable cells.
# [11] = system: HEK 293 cells; assay: PARP cleavage immunoblot, HEK293; assay type: cell-based; conditions: HEK 293, 20 μM, 72 hr
# [12] = system: AR and β-catenin target genes in LNCaP-abl cells; assay: Q-PCR time course of AR and β-catenin target genes in LNCaP-abl cells; assay type: cell-based; conditions: single dose at time 0, persists for 48 hours, FIG. 16A
# Description: (§5) ABL cells were treated similarly, but cultured in 5% charcoal-stripped phenol-red free RPMI. The mRNA was extracted at each time point and relative levels of indicated genes were analyzed by Q-PCR and normalized to RPL19. B) Protein from LNCaP cells was analyzed at each time point and immunoblotted with indicated antibodies.
# (§6) Expression of tubulin (included as an internal loading control) and β-catenin were unaffected.
# [13] = system: AR, PSA, c-myc, CDK1, UBE2C protein in LNCaP cells; assay: Western blot time course of AR and β-catenin target proteins in LNCaP cells; assay type: cell-based
# Description: as §5, §6
# [14] = system: membrane bound β-catenin; assay: Immunofluorescence of membrane β-catenin in androgen-deprived LNCaP cells; assay type: cell-based
# From the text: An important objective in the initial screen for inhibitors of β-catenin responsive transcription (iCRT) was to isolate compounds that diminished the nuclear function of β-catenin without affecting β-catenin interaction with E-cadherin at the cell membrane.
# [15] = system: LNCaP-abl tumors; assay: LNCaP-abl xenograft model of castration-resistant prostate cancer in nude mice; assay type: in vivo; conditions: 100 mg/kg daily, intraperitoneal then intratumor injection, FIG. 23
# Description: Tumor volumes were measured twice weekly.
# The cell types for xenograft studies include LNCaP, LNCaP-abl and VCaP, which have all been previously utilized for xenograft studies and are able to recur following castration [Korenchuk et al., In Vivo, 2001. 15(2): 163-8; Culig et al., Br J Cancer, 1999. 81(2): 242-51; Graff et al., J Biol Chem, 2000. 275(32): 24500-5]. VCaP cells harbor a wild type androgen receptor and are androgen-dependent for growth [van Bokhoven et al., Prostate, 2003. 57(3): 205-25]. Other characteristics of cells to be considered in such experiments include the mutational status of AR, pTEN, p53, ETS fusion, and the year derived. Following determination of the MTD, 5×10^6 cells are mixed with an equal volume of Matrigel (BD Biosciences) and injected subcutaneously into the right and left flank of a BALB/c nu/nu outbred mouse. […] To assay growth, tumors are measured with Vernier calipers, and the total volume determined by using the formula 0.52×width×height×depth. Tumor growth is measured twice weekly and animals are also weighed twice weekly to assess toxicity.
# Methods: Rapidly cycling LNCaP-abl cells (15×10^6) were mixed with an equal volume of Matrigel and injected subcutaneously into the flank region of nude male mice. […] To assess growth, tumors were measured twice weekly with Vernier calipers, and the total volume was determined.
smiles,measurement,setting,value
CCc1ccc(-c2nc(CSCC(=O)NCCc3ccccc3)c(C)o2)cc1 [Compound C3],cell cycle effect,[1],G0/G1 arrest
same,IC50,[2],140 nM
same,Wnt reporter gene activity (STF16-LUC),"[2]; 20 uM, 24 hr",inhibits
same,IC50,[3],890 nM
same,Wnt reporter gene activity (STF16-LUC),"[3]; 20 uM, 24 hr",inhibits
same,IC50,[4]; LNCaP (first of two values),1440 nM
same,AR reporter gene activity (LB1-LUC),"[4]; LNCaP, 20 uM, 24 hr",inhibits
same,cell growth,[5],completely abolished
same,cell growth,[6],completely abolished
same,cell cycle effect by flow cytometry,[7],growth arrest of the cells in the G0/G1 phase
same,cell cycle effect by flow cytometry,[8],growth arrest of the cells in the G0/G1 phase
same,PARP cleavage (apoptosis marker),[9],Increased levels of PARP cleavage
same,293 cell growth,[10],somewhat slow
same,apoptosis (PARP cleavage) in 293 cells,[11],does not induce apoptosis
same,"AR, CDK1, UBE2C and c-myc mRNA",[12],diminished
same,expression of tubulin and β-catenin protein,[13],unaffected
same,"levels of AR, PSA, c-myc, CDK1 and UBE2C protein",[13]; especially at 48-hour time point,diminished levels
same,ability of β-catenin to interact with E-cadherin at the cell membrane,[14],does not affect
same,tumor volume,[15],reduced tumor volume to a statistically significant degree

# From US9173871B2, “Oxazole and thiazole compounds as beta-catenin modulators and uses thereof” (New York University, priority 2008, dated 2015)
